Laboratory results from publication PMC7155171, “Probing the Open Global Health Chemical Diversity Library for Multistage-Active Starting Points for Next-Generation Antimalarials” (ACS Infectious Diseases, 2020).
pIC50: −log10 of the molar value.

Legend:
[1] = target: recombinant firefly luciferase (Photinus pyralis, UniProt P08659); assay: biochemical; conditions: dose response; for Emax: maximum inhibition, read-out: rLuc inhibition dose response: Maximum inhibition (%); for pIC50: read-out: rLuc inhibition dose response: IC50
recombinant firefly luciferase, sequence (P08659 whole entry): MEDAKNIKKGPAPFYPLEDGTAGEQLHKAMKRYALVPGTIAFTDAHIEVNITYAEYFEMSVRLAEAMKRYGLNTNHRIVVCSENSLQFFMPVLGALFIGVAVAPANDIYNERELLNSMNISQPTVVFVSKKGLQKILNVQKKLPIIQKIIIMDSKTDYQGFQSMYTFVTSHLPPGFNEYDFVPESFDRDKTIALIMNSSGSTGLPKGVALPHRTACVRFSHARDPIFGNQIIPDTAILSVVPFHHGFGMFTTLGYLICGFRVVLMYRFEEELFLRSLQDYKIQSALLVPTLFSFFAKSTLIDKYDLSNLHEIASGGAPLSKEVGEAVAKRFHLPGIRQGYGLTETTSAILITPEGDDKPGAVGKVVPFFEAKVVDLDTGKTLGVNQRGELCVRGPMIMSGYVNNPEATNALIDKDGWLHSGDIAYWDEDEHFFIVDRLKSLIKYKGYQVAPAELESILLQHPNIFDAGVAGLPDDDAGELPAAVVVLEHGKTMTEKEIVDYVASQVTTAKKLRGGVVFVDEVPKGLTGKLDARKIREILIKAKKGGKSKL

[2] = tested on: P. berghei liver stage (PbLuc); assay: P. berghei luciferase liver stage (PbLuc) assay in HepG2-A16-CD81 hepatocytes; format: cell-based, Plasmodium berghei; conditions: Plasmodium berghei; for pIC50: HepG2-A16-CD81, 12pt dose response, read-out: PbLuc 12pt dose response: IC50; for Emax: HepG2-A16-CD81, 48 h, 12pt dose response, maximum inhibition
[3] = HepG2 cytotoxicity screening (CellTiter-Glo); conditions: human, uninfected HepG2-A16-CD81 (EGFP) hepatocytes
[4] = tested on: HepG2-A16-CD81 hepatocytes; assay: HepG2 cytotoxicity screening (CellTiter-Glo); conditions: for HepG2 cytotoxicity 12pt dose response: Maximum inhibition (%): 12pt dose response

| SMILES | Emax [1] [%] | pIC50 [1] | pIC50 [2] | Emax [2] [%] | pIC50 [3] | HepG2 Cytotoxicity primary screen (2uM): % Inhibition [4] [%] | HepG2 cytotoxicity 12pt dose response: Maximum inhibition (%) [4] [%] | inhibition at 2 µM [3] [%] | inhibition at 2 µM ([2]; HepG2-A16-CD81, primary screen, 2 uM) [%] | inhibition at 10 µM [3] [%] |
| --- | --- | --- | --- | --- | --- | --- | --- | --- | --- | --- |
| COC(=O)c1sc(NCc2ccc(N3CCC(O)CC3)c(F)c2)nc1Cl [UCSD-0616240] | 26.9 | < 4.60 | 4.90 | 87.4 | 4.75 | 5.85 | 58.9 |  |  |  |
| O=C(NC1CCCC1)O[C@H]1COCCN(c2nc3ccccc3s2)C1 [UCSD-0785020] | 16.5 | < 4.60 | 5.18 | 88.1 | < 4.60 |  | -1.51 | 0.48 |  |  |
| N#Cc1c(Cl)nsc1NCc1cccnc1OCC(F)(F)F [UCSD-0808444] | 43.9 | < 4.60 | 4.83 | 69.5 | < 4.60 | 4.29 | -0.683 |  |  |  |
| Cc1cccc(Nc2cc(C3CCCN(CC(N)=O)C3)ccn2)n1 (stereo not shown) [UCSD-0798772] |  | < 5.08 | > 9.85 | 89.4 | < 4.60 |  | 3.72 | 1.68 |  |  |
| CCS(=O)(=O)N1CCc2ccc(NC(=O)Nc3cccc(C)c3)cc21 [UCSD-0785768] | 36.5 | < 4.30 | 5.44 | 77.6 | < 4.78 |  | 52.3 | 27.5 |  |  |
| CC1(c2ccccc2)CCCN(Cc2cncn2C2CCCC2)C1 (stereo not shown) [UCSD-0827293] | 7.12 | < 4.60 | 4.87 | 95.5 | 4.73 | -6.73 | 58 |  |  |  |
| Cn1cc(NS(=O)(=O)c2ccc(OC(F)(F)F)cc2)ccc1=O [UCSD-0710715] | 16.1 | < 4.60 | 4.88 | 69.6 | < 4.60 | -4.65 |  |  |  |  |
| Cc1cc(-c2cnc(NCc3cccnc3)nc2C(C)(C)C)on1 [UCSD-0802583] | 6.14 | < 4.60 | 5.00 | 86.4 | < 4.60 | -8.43 | 45.3 |  |  |  |
| COc1ccc(-c2ccc(C3CNCCO3)nc2)cc1 (stereo not shown) [UCSD-0802458] | 89.6 | 7.56 | > 9.85 | 94 | < 4.30 |  | -13.4 | 23.7 |  |  |
| CCc1c(C)nc(-n2nc(C3CC3)cc2NC(C)=O)[nH]c1=O [UCSD-0787229] | 16.1 | < 4.30 | 7.08 | 97.2 | < 4.60 |  | 3.74 |  |  |  |
| COc1cccc(CNc2cc(C)nc(-c3ccncc3)n2)c1OC [UCSD-0704521] | 11.7 | < 4.60 | 5.35 | 104 | 5.01 | -4.44 | 80.5 |  |  |  |
| CCS(=O)(=O)N1CCc2ccc(NC(=O)Nc3cccc(SC)c3)cc21 [UCSD-0795016] | 12.2 | < 4.60 | 5.86 | 98.9 | 5.47 |  | 54 | 0 |  |  |
| CC(C)N(CC(N)=O)Cc1csc(COc2ccc(F)cc2)n1 [UCSD-0845986] | 5.14 | < 4.60 | 4.84 | 97.4 | 4.64 | 6.02 | 68.7 |  |  |  |
| COc1ccc2cc(C3CN(C(=O)CCNC(C)=O)CCO3)ccc2c1 (stereo not shown) [UCSD-0829391] | 67.5 | 5.00 | 6.48 | 85.2 | < 4.60 |  | 2.45 | -3.5 | -1.1 |  |
| CC(C)Cn1ccc2c(NC(=O)c3n[nH]c4c3CCC4)cccc21 [UCSD-0786893] | 38.5 | < 4.60 | 4.87 |  | < 4.60 | 3.16 | 32.3 |  |  |  |
| CCOc1ccc(S(=O)(=O)Nc2cnc(OC)nc2OC)cc1 [UCSD-0788088] | -1.04 | < 4.60 | 5.29 | 71.2 | < 4.60 |  | 61 | 4.64 |  |  |
| CNC(=O)CCC(=O)N1CCOC(c2ccc3cc(OC)ccc3c2)C1 (stereo not shown) [UCSD-0831800] | 66.4 | 4.63 | 9.02 | 88.9 | < 4.60 |  | 1 | -0.85 |  | 3.9 |

| SMILES | Emax [1] [%] | pIC50 [1] | pIC50 [2] | Emax [2] [%] | pIC50 [3] | HepG2 Cytotoxicity primary screen (2uM): % Inhibition [4] [%] | HepG2 cytotoxicity 12pt dose response: Maximum inhibition (%) [4] [%] | inhibition at 2 µM [3] [%] | inhibition at 2 µM ([2]; HepG2-A16-CD81, primary screen, 2 uM) [%] | inhibition at 10 µM [3] [%] |
| --- | --- | --- | --- | --- | --- | --- | --- | --- | --- | --- |
| COc1cccc(CN2CCc3nc(C(=O)NCC(C)C)sc3CC2)c1 [UCSD-0790206] | 32 | < 4.60 | 5.01 |  | < 4.60 | -10.23 | 35.9 |  |  |  |
| CCc1cc(=O)[nH]c(-n2nc(C3CC3)cc2NC(=O)C2CC2)n1 [UCSD-0787226] | 8.54 | < 4.60 | 6.46 | 92.4 | < 4.60 |  | 54 | -1.99 |  |  |
| CC(C)(CO)Nc1ccc(-c2nc(-c3ccccc3F)no2)cn1 [UCSD-0833103] | 93.7 | 7.35 | > 9.85 | 98.5 | < 4.60 |  | 34.7 | 2.86 |  |  |
| COc1cc(C)c(CN2CCc3nc4ccsc4c(=O)n3CC2)cc1C [UCSD-0801369] | 5.88 | < 4.60 | 5.05 | 95.5 | < 4.60 |  | 25.1 | 0 |  |  |
| Cc1noc(NC(=O)c2ccc(OC(F)(F)F)cc2)n1 [UCSD-0844950] | 29.1 | < 4.60 | 5.08 | 93.2 | 4.63 |  | 50.3 | 4.58 |  |  |
| O=C(CN1CCCC(c2ccn[nH]2)C1)Nc1nc2c(s1)CCCC2 (stereo not shown) [UCSD-0818422] | 6.65 | < 4.60 | 5.34 | 95.9 | < 4.60 | 7.13 | 8.88 |  |  |  |
| Cc1ncc(C(=O)NC2CCN(CCOc3ccc(Br)cc3)CC2)s1 [UCSD-0818166] | 32.8 | < 4.60 | 4.80 | 96.5 | < 4.60 |  | 7.96 | 1.78 |  |  |
| Fc1ccc(CN2CCCC(c3cc4ncccc4[nH]3)C2)cc1 (stereo not shown) [UCSD-0798856] | 23.6 | < 4.60 | 5.07 | 78.4 | < 4.60 |  | -0.046 | 12 |  |  |
| Clc1ccccc1-c1cc(CNc2ncnc3c2CCNCC3)no1 [UCSD-0827811] | 12.2 | < 4.60 | 4.87 | 93.4 | < 4.60 | -1.07 | 49.9 |  |  |  |
| CCc1nc(CN2CCN(c3ncnc4cc(F)ccc34)CC2)no1 [UCSD-0819439] | 3.14 | < 4.60 | 5.56 | 95.7 | 5.20 |  | 64.7 | 13.2 |  |  |
| Clc1ccc(-c2ccc(C3CNCCO3)nc2)cc1 (stereo not shown) [UCSD-0802213] | 95.9 | 7.21 | > 9.85 |  | < 4.60 |  | -1.02 | 18.1 |  |  |
| CC(=O)Nc1ccc(-n2ccc3nc(N4CCCC4)ncc3c2=O)cc1 [UCSD-0795240] | -8.22 | < 4.60 | 5.39 | 100 | < 4.60 |  | 8.78 | 0 |  |  |
| Cc1[nH]/c(=N\C(=O)c2csc(NCC(C)C)n2)sc1C [UCSD-0795190] | 77 | 5.02 | 5.05 | 84.4 | < 4.60 |  | 42.7 | 0 |  |  |
| COc1cccc(-c2noc(C3CCN(Cc4cn(C)nc4C)C3)n2)c1 (stereo not shown) [UCSD-0839537] | 60.2 | 4.62 | 5.03 | 86.1 | < 4.60 |  | 4.79 | 5.3 |  |  |
| CC(=O)Nc1ncc(S(=O)(=O)Nc2ccc3c(c2)OCCO3)s1 [UCSD-0796805] | 52.2 | < 4.60 | 5.01 | 92 | < 4.60 | -2.36 | 4.04 |  |  |  |
| Cc1cnc(NC(=O)c2csc(NC3CCCC3)n2)s1 [UCSD-0752486] | 65.8 | 4.61 | 5.08 | 93.6 | < 4.60 |  | 48.7 |  |  |  |
